The term IC50 denotes the midpoint of a concentration-inhibition curve.

Molecules are shown by their SMILES.

In the assay the target is T1, human SARM1(50-724) (Homo sapiens, UniProt Q6SZW1).
T1 construct: 40 nM human SARM1(50-724)
T1 sequence (Q6SZW1 50-724): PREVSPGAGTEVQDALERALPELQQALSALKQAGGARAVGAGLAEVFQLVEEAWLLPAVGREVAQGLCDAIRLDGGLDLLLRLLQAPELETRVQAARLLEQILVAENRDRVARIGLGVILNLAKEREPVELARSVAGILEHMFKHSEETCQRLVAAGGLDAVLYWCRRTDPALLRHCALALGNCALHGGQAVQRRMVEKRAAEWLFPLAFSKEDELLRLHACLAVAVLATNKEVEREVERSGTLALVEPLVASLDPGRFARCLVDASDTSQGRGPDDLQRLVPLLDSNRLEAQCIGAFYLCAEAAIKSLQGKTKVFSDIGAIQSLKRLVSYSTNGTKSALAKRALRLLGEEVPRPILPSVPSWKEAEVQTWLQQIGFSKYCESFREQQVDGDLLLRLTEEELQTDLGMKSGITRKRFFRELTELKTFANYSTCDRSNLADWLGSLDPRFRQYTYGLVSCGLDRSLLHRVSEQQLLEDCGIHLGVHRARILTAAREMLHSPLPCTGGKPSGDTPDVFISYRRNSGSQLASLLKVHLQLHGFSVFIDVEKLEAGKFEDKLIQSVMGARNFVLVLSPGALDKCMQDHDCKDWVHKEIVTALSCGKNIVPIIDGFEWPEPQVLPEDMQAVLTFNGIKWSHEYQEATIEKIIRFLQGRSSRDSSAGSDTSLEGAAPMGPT
The assay is described as follows: SARM1 NADase biochemical assay (HPLC of NAD and NAM). The conditions noted are these: 40 nM human SARM1(50-724), 0.3 mM NMN, 20 μM NAD, 60 minutes room temperature; dose-response from 100 μM, 1:3 dilution. How it is done:
Each reaction was run at a volume of 20 μL containing 50 μM compound (dissolved in DMSO; final concentration of DMSO is 1% v/v), 40 nM human SARM1(50-724), 0.3 mM NMN, 20 μM NAD, 1 mM TCEP, 25 mM HEPES pH 7.4, 10 mM KCl and 10 mM MgCl2. The reaction was incubated at room temperature for 60 minutes and quenched with 20 μL of 0.4% formic acid. The samples were run on Agilent HPLC 1260 Infinity II with Synergi 2.5 μM Fusion-RP 100 Å (100×3.0 mm) LC column from Phenomenex. Total run time for each sample was 4 minutes. The run was isocratic with 1.5% methanol in 40 mM ammonium acetate pH 6.0. Samples were run at a flow rate of 0.8 mL/min at 55° C. Peak areas of NAD and NAM were determined using OpenLAB CDS (Chem Station edition) software. For dose-response, the compound was diluted serially 1:3 in DMSO and added to the reaction starting at a final compound concentration of 100 μM in 1% DMSO.
Consider `Cc1cccc(CCC(=O)Nc2[nH]nc(-c3ccncc3)c2C)c1` [Example 25, N-(4-Methyl-3-(pyridin-4-yl)-1H-pyrazol-5-yl)-3-(m-tolyl)propanamide], for which the half-inhibitory concentration (IC50) is 1 to 10 µM.
As to `Cc1ccccc1CCC(=O)Nc1[nH]nc(-c2ccncc2)c1C` [Example 26, N-(4-Methyl-3-(pyridin-4-yl)-1H-pyrazol-5-yl)-3-(o-tolyl)propanamide], the IC50 was 1 to 10 µM.
Regarding `COc1ccc(CCC(=O)Nc2[nH]nc(-c3ccncc3)c2C)cc1` [Example 27, 3-(4-Methoxyphenyl)-N-(4-methyl-3-(pyridin-4-yl)-1H-pyrazol-5-yl)propanamide], the IC50 fell in the range of 1 to 10 µM.
Take `Cc1c(-c2ccncc2)n[nH]c1NC(=O)CCc1ccc2ccccc2c1` [Example 28, N-(4-Methyl-3-(pyridin-4-yl)-1H-pyrazol-5-yl)-3-(naphthalen-2-yl)propanamide]: the IC50 lay in the range of 1 to 10 µM.
`Cc1c(-c2ccncc2)n[nH]c1NC(=O)CCc1cccc2ccccc12` [Example 29, N-(4-Methyl-3-(pyridin-4-yl)-1H-pyrazol-5-yl)-3-(naphthalen-1-yl)propanamide]: the 50% inhibitory concentration (IC50) fell in the range of 1 to 10 µM.
With `Cc1c(-c2ccncc2)n[nH]c1NC(=O)CCc1cccc(Cl)c1` [Example 30, 3-(3-Chlorophenyl)-N-(4-methyl-3-(pyridin-4-yl)-1H-pyrazol-5-yl)propanamide], the IC50 is < 1 µM.
`Cc1c(-c2ccncc2)n[nH]c1NC(=O)CCc1ccc(Cl)c(Cl)c1` [Example 31, 3-(3,4-Dichlorophenyl)-N-(4-methyl-3-(pyridin-4-yl)-1H-pyrazol-5-yl)propanamide]: the concentration for half-maximal inhibition (IC50) was < 1 µM.
Take `Cc1c(-c2ccncc2)n[nH]c1NC(=O)CCc1ccc(C(F)(F)F)cc1` [Example 32, N-(4-Methyl-3-(pyridin-4-yl)-1H-pyrazol-5-yl)-3-(4-(trifluoromethyl)phenyl)propanamide]: the IC50 was < 1 µM.
Regarding `Cc1c(-c2ccncc2)n[nH]c1NC(=O)CCc1ccc(F)cc1` [Example 33, 3-(4-Fluorophenyl)-N-(4-methyl-3-(pyridin-4-yl)-1H-pyrazol-5-yl)propanamide], the 50% inhibitory concentration (IC50) is < 1 µM.
On to `CCc1ccc(CCC(=O)Nc2[nH]nc(-c3ccncc3)c2C)cc1` [Example 34, 3-(4-Ethylphenyl)-N-(4-methyl-3-(pyridin-4-yl)-1H-pyrazol-5-yl)propanamide], for which the 50% inhibitory concentration (IC50) was 1 to 10 µM.
`Cc1c(-c2ccncc2)n[nH]c1NC(=O)CCc1ccc(Br)cc1` [Example 35, 3-(4-Bromophenyl)-N-(4-methyl-3-(pyridin-4-yl)-1H-pyrazol-5-yl)propanamide]: the IC50 was < 1 µM.
Turning to `Cc1c(-c2ccncc2)n[nH]c1NC(=O)CCc1ccc(C#N)cc1` [Example 36, 3-(4-Cyanophenyl)-N-(4-methyl-3-(pyridin-4-yl)-1H-pyrazol-5-yl)propanamide], the half-inhibitory concentration (IC50) was < 1 µM.
For the molecule `Cc1c(-c2ccncc2)n[nH]c1NC(=O)CCc1ccc([N+](=O)[O-])cc1` [Example 37, N-(4-Methyl-3-(pyridin-4-yl)-1H-pyrazol-5-yl)-3-(4-nitrophenyl)propanamide], the IC50 was < 1 µM.
With `Cc1c(-c2ccncc2)n[nH]c1NC(=O)CCc1ccc(Cl)nc1` [Example 38, 3-(6-Chloropyridin-3-yl)-N-(4-methyl-3-(pyridin-4-yl)-1H-pyrazol-5-yl)propanamide], the IC50 is < 1 µM.
The same measure for `Cc1c(-c2ccncc2)n[nH]c1NC(=O)CCc1ccc(Cl)cn1` [Example 39, 3-(5-Chloropyridin-2-yl)-N-(4-methyl-3-(pyridin-4-yl)-1H-pyrazol-5-yl)propanamide]: 1 to 10 µM.
As for `Cc1c(-c2ccncc2)n[nH]c1NC(=O)CCc1cc(F)c(Cl)cc1F` [Example 40, 3-(4-Chloro-2,5-difluorophenyl)-N-(4-methyl-3-(pyridin-4-yl)-1H-pyrazol-5-yl)propanamide], the figure is < 1 µM; as for `Cc1c(-c2ccncc2)n[nH]c1NC(=O)CCc1ccc(Cl)cc1F` [Example 41, 3-(4-Chloro-2-fluorophenyl)-N-(4-methyl-3-(pyridin-4-yl)-1H-pyrazol-5-yl)propanamide], < 1 µM.
As for `Cc1cc(Cl)ccc1CCC(=O)Nc1[nH]nc(-c2ccncc2)c1C` [Example 42, 3-(4-Chloro-2-methylphenyl)-N-(4-methyl-3-(pyridin-4-yl)-1H-pyrazol-5-yl)propanamide], the figure is < 1 µM; as for `Cc1cc(CCC(=O)Nc2[nH]nc(-c3ccncc3)c2C)ccc1Cl` [Example 43, 3-(4-Chloro-3-methylphenyl)-N-(4-methyl-3-(pyridin-4-yl)-1H-pyrazol-5-yl)propanamide], < 1 µM; as for `Cc1c(-c2ccncc2)n[nH]c1NC(=O)CCc1ccc(F)c(F)c1` [Example 44, 3-(3,4-Difluorophenyl)-N-(4-methyl-3-(pyridin-4-yl)-1H-pyrazol-5-yl)propanamide], < 1 µM.
Take `Cc1c(-c2ccncc2)n[nH]c1NC(=O)CCc1ccc(F)cc1F` [Example 45, 3-(2,4-Difluorophenyl)-N-(4-methyl-3-(pyridin-4-yl)-1H-pyrazol-5-yl)propanamide]: the IC50 was < 1 µM.
On to `Cc1c(-c2ccncc2)n[nH]c1NC(=O)CCc1ccc(I)cc1` [Example 46, 3-(4-Iodophenyl)-N-(4-methyl-3-(pyridin-4-yl)-1H-pyrazol-5-yl)propanamide], for which the IC50 was < 1 µM.
The same measure for `Cc1c(-c2ccncc2)n[nH]c1NC(=O)CCc1cc(Cl)c(Cl)c(Cl)c1` [Example 47, N-(4-Methyl-3-(pyridin-4-yl)-1H-pyrazol-5-yl)-3-(3,4,5-trichlorophenyl)propanamide]: < 1 µM.
Consider `Cc1c(-c2ccncc2)n[nH]c1NC(=O)CCc1cc(F)c(Cl)c(F)c1` [Example 48, 3-(4-Chloro-3,5-difluorophenyl)-N-(4-methyl-3-(pyridin-4-yl)-1H-pyrazol-5-yl)propanamide], for which the IC50 is < 1 µM.
As to `Cc1c(-c2ccncc2)n[nH]c1NC(=O)CCc1ccc(Cl)c(F)c1F` [Example 49, 3-(4-Chloro-2,3-difluorophenyl)-N-(4-methyl-3-(pyridin-4-yl)-1H-pyrazol-5-yl)propanamide], the IC50 was < 1 µM.
As for `Cc1c(-c2ccncc2)n[nH]c1NC(=O)CCc1cc(F)c(F)c(F)c1` [Example 50, N-(4-Methyl-3-(pyridin-4-yl)-1H-pyrazol-5-yl)-3-(3,4,5-trifluorophenyl)propanamide], the IC50 is < 1 µM.
On to `Cc1c(-c2ccncc2)n[nH]c1NC(=O)CCc1ccc(F)c(F)c1F` [Example 51, N-(4-Methyl-3-(pyridin-4-yl)-1H-pyrazol-5-yl)-3-(2,3,4-trifluorophenyl)propanamide], for which the half-maximal inhibitory concentration (IC50) was < 1 µM.
Consider `Cc1c(-c2ccncc2)n[nH]c1NC(=O)CCc1cc(F)c(F)cc1F` [Example 52, N-(4-Methyl-3-(pyridin-4-yl)-1H-pyrazol-5-yl)-3-(2,4,5-trifluorophenyl)propanamide], for which the concentration for half-maximal inhibition (IC50) is < 1 µM.
With `Cc1c(-c2ccncc2)n[nH]c1NC(=O)CCc1ccc(C#N)c(F)c1` [Example 53, 3-(4-Cyano-3-fluorophenyl)-N-(4-methyl-3-(pyridin-4-yl)-1H-pyrazol-5-yl)propanamide], the half-inhibitory concentration (IC50) is < 1 µM.
`Cc1c(-c2ccncc2)n[nH]c1NC(=O)CCc1ccc(OC(F)(F)F)cc1` [Example 54, N-(4-Methyl-3-(pyridin-4-yl)-1H-pyrazol-5-yl)-3-(4-(trifluoromethoxy)phenyl)propanamide]: the concentration for half-maximal inhibition (IC50) is < 1 µM.

(Values after patent US12404265B2, “Substituted pyridine derivatives as SARM1 inhibitors” (Nura Bio, Inc., priority 2020, dated 2025).)
